In ChEMBL document CHEMBL3817755, “Design, synthesis and biological evaluation of indazolepyrimidine based derivatives as anticancer agents with anti-angiogenic and antiproliferative activities” (Medchemcomm, 2016) one finds inhibition data, which are given here for 2 compounds.

SMILES strings stand for the structures.

The experiment addresses Vascular endothelial growth factor receptor 2 (Homo sapiens, UniProt P35968). Briefly: Inhibition of VEGFR-2 (unknown origin) at 10 uM after 1 hr by Z'LYTE assay.

Vascular endothelial growth factor receptor 2, sequence (P35968 whole entry): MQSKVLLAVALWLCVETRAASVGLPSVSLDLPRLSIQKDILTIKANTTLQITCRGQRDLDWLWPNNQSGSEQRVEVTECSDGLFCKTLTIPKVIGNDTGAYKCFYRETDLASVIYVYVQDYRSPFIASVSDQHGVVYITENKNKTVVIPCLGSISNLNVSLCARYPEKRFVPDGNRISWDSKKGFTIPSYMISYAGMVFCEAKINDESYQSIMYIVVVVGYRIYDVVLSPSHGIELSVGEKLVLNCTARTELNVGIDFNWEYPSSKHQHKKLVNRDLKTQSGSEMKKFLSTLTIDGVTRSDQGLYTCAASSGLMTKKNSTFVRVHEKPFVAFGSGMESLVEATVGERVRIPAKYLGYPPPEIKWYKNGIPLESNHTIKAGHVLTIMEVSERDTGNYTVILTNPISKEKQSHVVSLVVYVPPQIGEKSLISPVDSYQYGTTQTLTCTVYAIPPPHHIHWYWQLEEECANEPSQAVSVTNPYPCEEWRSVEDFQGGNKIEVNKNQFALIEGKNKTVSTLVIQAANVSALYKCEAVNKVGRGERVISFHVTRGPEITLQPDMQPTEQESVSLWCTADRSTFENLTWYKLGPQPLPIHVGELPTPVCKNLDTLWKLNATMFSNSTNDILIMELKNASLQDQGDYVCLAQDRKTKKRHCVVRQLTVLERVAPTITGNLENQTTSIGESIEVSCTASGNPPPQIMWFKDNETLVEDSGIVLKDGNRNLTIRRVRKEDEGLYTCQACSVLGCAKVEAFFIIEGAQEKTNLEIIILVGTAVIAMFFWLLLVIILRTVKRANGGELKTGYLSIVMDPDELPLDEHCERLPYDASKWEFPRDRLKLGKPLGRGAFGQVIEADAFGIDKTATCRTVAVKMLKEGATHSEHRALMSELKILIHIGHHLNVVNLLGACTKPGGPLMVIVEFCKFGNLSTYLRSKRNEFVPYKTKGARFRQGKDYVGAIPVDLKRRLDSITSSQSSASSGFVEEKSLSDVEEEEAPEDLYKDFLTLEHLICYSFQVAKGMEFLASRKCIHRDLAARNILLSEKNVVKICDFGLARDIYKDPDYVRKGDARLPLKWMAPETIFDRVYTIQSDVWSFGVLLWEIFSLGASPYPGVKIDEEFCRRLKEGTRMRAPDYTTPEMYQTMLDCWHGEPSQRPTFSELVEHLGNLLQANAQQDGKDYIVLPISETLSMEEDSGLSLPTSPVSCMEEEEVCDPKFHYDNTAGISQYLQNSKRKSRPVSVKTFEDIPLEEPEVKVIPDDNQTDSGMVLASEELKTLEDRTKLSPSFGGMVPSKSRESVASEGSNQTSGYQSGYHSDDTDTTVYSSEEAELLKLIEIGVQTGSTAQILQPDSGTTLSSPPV

A word on the inhibition: it is the percentage by which the read-out fell short of the control. A low value points to a response near the control. As for `Cc1c2ccc(Nc3ccnc(Nc4ccc(F)cc4)n3)cc2nn1C`, the inhibition stood at 63.8%.
For `Cc1c2ccc(Nc3ccnc(Nc4ccc(S(N)(=O)=O)cc4)n3)cc2nn1C` the value was 60.8%.
